Laboratory results published in patent US7566724B2, “Glycine derivative and use thereof” (Toray Industries, Inc., priority 2004, dated 2009).
Counter-ions that a name gives are not always drawn. Like-named read-outs stand apart in the source and are kept apart here.

What was measured:
Jurkat cells = assay: Measurement of Inhibitory Effect on Leukocyte Functions (adhesion of Jurkat cells to ligand-expressing cells or ligand-immobilized plate); assay type: cell-based; settings: Homo sapiens, 0.5 h, read-out: IC50 (adhesion of Jurkat cells)
Protocol: Jurkat cells which are a cell line originated from human acute T cell lymphoma were allowed to react with BCECF-AM at 37° C. for 20 minutes to fluorescently label the cells. The fluorescently labelled Jurkat cells were allowed to react with ligand-expressing cells or with a ligand-immobilized plate at 37° C. for 30 minutes. After removing non-adherent cells by washing, 1% NP40 was added to lyse the adherent cells, and fluorescence intensity was measured with Cytoflow 2300 (Millipore). From the obtained fluorescence intensity, the number of adherent cells was calculated. Each test compound was reacted with the Jurkat cells before the beginning of the adhesion reaction. In Table 18, the IC50 of each compound is shown.

[1] = Pharmacokinetic Evaluation in Rats; assay type: in vivo; settings: rat, male SD rats, administered orally or intravenously, plasma up to 8 hours, LC/MS/MS; for bioavailability: oral, read-out: BA(%) (bioavailability); for clearance: read-out: CLtot (total clearance) (converted)
Protocol: Each compound was dissolved at a concentration of 0.5 mg/ml in PBS or in PBS containing 10% PEG. The compound was administered orally or intravenously to male SD rats (7 to 9 weeks old). Blood was collected from the tail vein at time points up to 8 hours after the administration, and blood plasma was collected by centrifugation from each obtained blood. The blood plasma was pretreated by using the solid-phase extraction method, and the concentration of the compound was analyzed with LC/MS/MS (ESI negative mode).
As the Comparative Compound, 2-[4-((3,5-dichlorobenzensulfonylamino)methyl)benzoylamino]-5-(4-(methyl-pyrimidin-2-ylamino)phenyl)pento-4-ene acid (XXI) described in WO 99/26923 was used.
[“BA” in Table 17 means bioavailability, and “CLtot” means total clearance.]

[2] = fluorescently labelled Jurkat cells, ligand-expressing cells or ligand-immobilized plate, 37° C. 30 minutes

Structure (SMILES): CCCCN(c1ccc(/C=C/CC(NC(=O)c2c(Cl)cccc2Cl)C(=O)O)cc1)c1ncccn1 (stereo not drawn) [Example 37, (E)-5-(4-Butyl-pyrimidin-2-yl-amino)-phenyl]-2-(2,6-dichlorobenzamido)-pent-4-enoic acid sodium salt]
- IC50 (Jurkat cells; Jurkat): 160 nM

Structure (SMILES): CN(c1ccc(/C=C/CC(NC(=O)c2ccc(CNS(=O)(=O)c3cc(Cl)cc(Cl)c3)cc2)C(=O)O)cc1)c1ncccn1 (stereo not drawn) [Comparative Compound, 2-[4-((3,5-dichlorobenzensulfonylamino)methyl)benzoylamino]-5-(4-(methyl-pyrimidin-2-ylamino)phenyl)pento-4-ene acid, reference compound]
- bioavailability [1]: 1.7%
- clearance [1]: 21.4 mL/min/kg

Structure (SMILES): COC(=O)C(C/C=C/c1ccc(N(CCC#N)c2ncccn2)cc1)NC(=O)c1c(F)cccc1F (stereo not drawn) [Example 70, (E)-5-[4-((2-Cyano-ethyl)-pyrimidin-2-yl-amino)-phenyl]-2-(2,6-difluorobenzamido)-pent-4-enoic acid methyl ester]
- bioavailability [1]: 63.4%
- clearance [1]: 8.87 mL/min/kg

Structure (SMILES): CC(C)CN(c1ccc(/C=C/CC(NC(=O)c2c(Cl)cccc2Cl)C(=O)O)cc1)c1ncccn1 (stereo not drawn) [Example 55, (E)-2-(2,6-Dichlorobenzamido)-5-[4-(isobutyl-pyrimidin-2-ylamino)phenyl]pent-4-enoic acid sodium salt]
- IC50 (Jurkat cells; Jurkat): 420 nM

Structure (SMILES): O=C(NC(C/C=C/c1ccc(N(Cc2ccc(O)cc2)c2ncccn2)cc1)C(=O)O)c1c(Cl)cccc1Cl (stereo not drawn) [Example 29, (E)-2-(2,6-Dichlorobenzamido)-5-[4-((4-hydroxy-benzyl)-pyrimidin-2-ylamino)phenyl]pent-4-enoic acid]
- IC50 (Jurkat cells; [2]): 41 nM

Structure (SMILES): O=C(NC(C/C=C/c1ccc(Oc2ncccn2)cc1)C(=O)O)c1c(Cl)cccc1Cl (stereo not drawn) [Example 12, (E)-2-(2,6-Dichlorobenzamido)-5-[4-(pyrimidin-2-yloxy)phenyl]pent-4-enoic acid]
- IC50 (Jurkat cells; [2]): 220 nM

Structure (SMILES): COCCN(c1ccc(/C=C/CC(NC(=O)c2c(Cl)cccc2Cl)C(=O)O)cc1)c1ncccn1 (stereo not drawn) [Example 26, (E)-2-(2,6-Dichlorobenzamido)-5-[4-((2-methoxyethyl)-pyrimidin-2-ylamino)phenyl]pent-4-enoic acid sodium salt]
- IC50 (Jurkat cells; [2]): 36 nM

Structure (SMILES): COc1ccc(CN(c2ccc(/C=C/CC(NC(=O)c3c(Cl)cccc3Cl)C(=O)O)cc2)c2ncccn2)cc1 (stereo not drawn) [Example 35, (E)-2-(2,6-Dichlorobenzamido)-5-[4-((4-methoxy-benzyl)-pyrimidin-2-ylamino)phenyl]pent-4-enoic acid sodium salt]
- IC50 (Jurkat cells; [2]): 88 nM

Structure (SMILES): O=C(NC(C/C=C/c1ccc(N(CC2CC2)c2ncccn2)cc1)C(=O)O)c1c(Cl)cccc1Cl (stereo not drawn) [Example 53, (E)-5-[4-(Cyclopropylmethyl-pyrimidin-2-ylamino)phenyl]-2-(2,6-dichlorobenzamido)pent-4-enoic acid sodium salt]
- IC50 (Jurkat cells; Jurkat): 120 nM

Structure (SMILES): CCCN(c1ccc(/C=C/CC(NC(=O)c2c(Cl)cccc2Cl)C(=O)O)cc1)c1ncccn1 (stereo not drawn) [Example 57, (E)-2-(2,6-Dichlorobenzamido)-5-[4-(propyl-pyrimidin-2-ylamino)phenyl]pent-4-enoic acid]
- IC50 (Jurkat cells; [2]): 110 nM

Structure (SMILES): Cc1cccc(C)c1C(=O)NC(C/C=C/c1ccc(N(C)c2ncccn2)cc1)C(=O)O (stereo not drawn) [Example 69, (E)-2-(2,6-Dimethylbenzamido)-5-[4-(methyl-pyrimidin-2-ylamino)phenyl]pent-4-enoic acid]
- IC50 (Jurkat cells; [2]): 530 nM

Structure (SMILES): COC1(c2ccc(/C=C/CC(NC(=O)c3c(Cl)cccc3Cl)C(=O)O)cc2)CCCOCC1 (stereo not drawn) [Example 10, (E)-2-(2,6-Dichlorobenzamido)-5-[4-(4-methoxyoxepan-4-yl)phenyl]pent-4-enoic acid sodium salt]
- IC50 (Jurkat cells; [2]): 220 nM

Structure (SMILES): O=C(NC(C/C=C/c1ccc(N(Cc2cscn2)c2ncccn2)cc1)C(=O)O)c1c(Cl)cccc1Cl (stereo not drawn) [Example 41, (E)-2-(2,6-Dichlorobenzamido)-5-[4-(pyrimidin-2-yl-thiazol-4-ylmethyl-amino)phenyl]pent-4-enoic acid sodium salt]
- IC50 (Jurkat cells; [2]): 950 nM

Structure (SMILES): O=C(NC(C/C=C/c1ccc(N(c2ccccc2)c2ncccn2)cc1)C(=O)O)c1c(Cl)cccc1Cl (stereo not drawn) [Example 47, (E)-2-(2,6-Dichlorobenzamido)-5-[4-(phenyl-pyrimidin-2-ylamino)phenyl]pent-4-enoic acid sodium salt]
- IC50 (Jurkat cells; [2]): 930 nM

Structure (SMILES): CCOC1(c2ccc(/C=C/CC(NC(=O)c3c(Cl)cccc3Cl)C(=O)OC)cc2)CCOCC1 (stereo not drawn) [Example 5, (E)-2-(2,6-Dichlorobenzamido)-5-[4-(4-ethoxytetrahydropyran-4-yl)-phenyl]pent-4-enoic acid methyl ester]
- IC50 (Jurkat cells; [2]): 100 nM

Structure (SMILES): O=C(NC(C/C=C/c1ccc(N(Cc2cccnc2)c2ncccn2)cc1)C(=O)O)c1c(Cl)cccc1Cl (stereo not drawn) [Example 39, (E)-2-(2,6-Dichlorobenzamido)-5-[4-(pyridin-3-ylmethyl-pyrimidin-2-ylamino)phenyl]pent-4-enoic acid sodium salt]
- IC50 (Jurkat cells; [2]): 71 nM

Structure (SMILES): N#CCCN(c1ccc(/C=C/CC(NC(=O)c2c(Cl)cccc2Cl)C(=O)O)cc1)c1ncccn1 (stereo not drawn) [Example 31, (E)-5-[4-((2-Cyano-ethyl)-pyrimidin-2-yl-amino)-phenyl]-2-(2,6-dichlorobenzamido)-pent-4-enoic acid sodium salt]
- IC50 (Jurkat cells; [2]): 41 nM

Structure (SMILES): COc1cc(OC)nc(N(C)c2ccc(/C=C/CC(NC(=O)c3c(Cl)cccc3Cl)C(=O)O)cc2)n1 (stereo not drawn) [Example 45, (E)-2-(2,6-Dichlorobenzamido)-5-[4-((4,6-dimethoxy-pyrimidin-2-yl)-methyl-amino)phenyl]pent-4-enoic acid]
- IC50 (Jurkat cells; [2]): 890 nM

Structure (SMILES): O=C(NC(C/C=C/c1ccc(N(Cc2ccncc2)c2ncccn2)cc1)C(=O)O)c1c(Cl)cccc1Cl (stereo not drawn) [Example 59, (E)-2-(2,6-Dichlorobenzamido)-5-[4-(pyridin-4-ylmethyl-pyrimidin-2-ylamino)phenyl]pent-4-enoic acid]
- IC50 (Jurkat cells; [2]): 43 nM

Structure (SMILES): O=C(NC(C/C=C/c1ccc(N(c2ncccn2)C2CCOCC2)cc1)C(=O)O)c1c(Cl)cccc1Cl (stereo not drawn) [Example 49, (E)-2-(2,6-Dichlorobenzamido)-5-[4-(pyrimidin-2-yl-(tetrahydro-pyran-4-yl)-amino)phenyl]pent-4-enoic acid sodium salt]
- IC50 (Jurkat cells; [2]): 79 nM

Structure (SMILES): CCN(c1ccc(/C=C/CC(NC(=O)c2c(Cl)cccc2Cl)C(=O)O)cc1)c1ncccn1 (stereo not drawn) [Example 24, (E)-2-(2,6-Dichlorobenzamido)-5-[4-(ethyl-pyrimidin-2-ylamino)phenyl]pent-4-enoic acid]
- bioavailability [1]: 42.3%
- clearance [1]: 12.6 mL/min/kg
- IC50 (Jurkat cells; [2]): 220 nM

Structure (SMILES): O=C(NC(C/C=C/c1ccc(N(Cc2ccccn2)c2ncccn2)cc1)C(=O)O)c1c(Cl)cccc1Cl (stereo not drawn) [Example 61]
- IC50 (Jurkat cells; [2]): 33 nM

Structure (SMILES): COCC1(c2ccc(/C=C/CC(NC(=O)c3c(Cl)cccc3Cl)C(=O)O)cc2)CCOCC1 (stereo not drawn) [Example 8, (E)-2-(2,6-Dichlorobenzamido)-5-[4-(tetrahydro-4-(methoxymethyl)-2H-pyran-4-yl)phenyl]pent-4-enoic acid sodium salt]
- IC50 (Jurkat cells; [2]): 69 nM
